Results: the METLIN SMRT retention time set (Domingo-Almenara et al. 2019)

Assay: gradient 5% acetonitrile 3 min, to 50% in 2 min, to 85% in 15 min, held 3 min, 100 µL/min
Settings: column: Zorbax Extend-C18 2.1 x 50 mm; eluents: water / acetonitrile, 0.1% formic acid
Method in brief: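 Retention time was recorded from adduct peaks, which were picked computationally and each inspected manually. Pure standards ran in mixtures of ~100 molecules on HPLC coupled to a quadrupole time-of-flight mass spectrometer, in positive and negative ionization mode, through a Zorbax Extend-C18 column (2.1 × 50 mm, 1.8 μm) at 100 μL/min. Eluents were water and acetonitrile, each with 0.1% formic acid.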

Structure (SMILES) | RP-LC retention time [s]
CC1CCN(S(=O)(=O)c2ccc(-c3nnc(C(=O)NCCCN4CCCC4)o3)cc2)CC1 | 689
COc1ccc(C(=O)N2CCc3c(c(C(=O)N4CCCC(C(=O)NC5CC5)C4)nn3C)C2)c(OC)c1 (centres undefined) | 638
COc1ccc(-c2noc(C3CC(=O)N(c4ccc(C)c(C)c4)C3)n2)cc1 (centres undefined) | 1050
CCOC(=O)c1cc(S(=O)(=O)N2CCCC2C(=O)Nc2nc3ccc(C)cc3s2)cn1C (centres undefined) | 1040
Cc1cc(NC(=O)COc2coc(CN3CCN(C(=O)c4ccco4)CC3)cc2=O)no1 | 549
Cc1oc(-c2cccc(Cl)c2)nc1CN(c1ccccc1)S(=O)(=O)c1cccs1 | 1260
CCN(Cc1ccncc1)C(=O)C(CO)c1ccccc1 (centres undefined) | 619
CCOc1ccc(-c2nc(COc3cc(C)c4c(C)nn(C)c4n3)c(C)o2)cc1OC | 1110
O=C(Nc1cnn(-c2ncc(N3CCSCC3)cn2)c1)C1CCCC1 | 737
O=C(Oc1ccccc1)N1CCC(CNS(=O)(=O)c2ccc(F)c(Cl)c2)CC1 | 951
Cc1c(S(=O)(=O)N2c3ccccc3CC2C)cc(C(=O)N2CCC(C)CC2)n1C (centres undefined) | 723
CC1(C(=O)NCc2ccccc2)CCCN(C(=O)NCc2ccc(F)cc2)C1 (centres undefined) | 831
CCOc1cc(=O)n2c(c1C(=O)NCCCOC(C)C)CCCCC2 | 646
CCc1nnc(-c2cn(CC(=O)NC3CCCCCC3)c3ccccc23)o1 | 790
CC(C)CNS(=O)(=O)c1cccc2cnccc12 | 647
CCn1c(CCNC(=O)c2ccc(OC)nc2)nc2cccnc21 | 732
CC(=O)N1c2ccc(S(=O)(=O)N3CCCCC3)cc2CC1C(=O)NCCN(C)C1CCCCC1 (centres undefined) | 655
COC(=O)c1cc(C)nc2c1c(=O)n(Cc1nc(-c3ccccc3OC)oc1C)c(=O)n2C | 971
CC(COc1ccc(C(C)C)cc1)NC(=O)c1cccs1 (centres undefined) | 998
COc1ccc(-c2nc(COc3cc(C(F)(F)F)c4c(C)nn(C)c4n3)c(C)o2)cc1OC | 1190

Structure (SMILES) | RP-LC retention time [s]
COc1ccc(NC(=O)c2nc(N3CCCC3)c3c(C)cc(C)nc3n2)c(C)c1 | 666
CCCCN(Cc1nc2nc(C)cc(C)n2n1)C(=O)c1ccco1 | 720
COc1ccc(C)cc1NC(=O)Cn1nc2cc(C)nc(Nc3ccc(F)cc3)n2c1=O | 1100
CC(C)n1c(=O)sc2cc(S(=O)(=O)N3CCC(C(=O)Nc4ccc(Cl)cc4)CC3)ccc21 | 1050
c1ccc(-c2noc(COC3CCCN(C4CCOCC4)C3)n2)cc1 (centres undefined) | 628
COC(=O)c1ccc(N2C=C(C#N)S(=O)(=O)c3ccc(F)cc32)cc1 | 875
CCn1cc(-c2nc(CC(=O)NCc3ccccc3F)cs2)c2cccnc21 | 843
CCC1CCCCN1C(=O)c1cnc2nc(C)ccc2c1Nc1ccc(OC)c(Cl)c1 (centres undefined) | 668
COc1ccc(NC(=O)N2CC(Oc3ccc(-c4nc(-c5ccccc5)no4)cc3)C2)cc1 | 1090
CCNC(=O)C1CCN(c2cc(SCC(=O)Nc3ccc(C(=O)OCC)cc3)ncn2)CC1 | 725
CCc1noc(NC(C)=O)c1-c1ccc(OC)c(S(=O)(=O)Nc2cc(C)cc(C)c2)c1 | 852
Cc1ccc(-c2nc3ncccn3c2Nc2ccc(C)cc2C)cc1 | 838
Cc1noc(C)c1-c1ccc(S(=O)(=O)NCCC(C)C)cc1 | 954
COCCCNC(=O)c1cc2n(n1)CCCN(Cc1ccc(F)cc1)C2=O | 697
Cc1ccccc1Oc1nccn2c(=O)n(CC(=O)Nc3c(C)cccc3C)nc12 | 838
Cc1ccc(CNC(=O)C2CCN(c3cnc(N4CCCC4)nc3)CC2)cc1 | 680
Cn1cc(CN2CCC(C(=O)NCc3ccccc3)CC2)c2cc(Cl)ccc21 | 714
Cn1cnc(S(=O)(=O)N2CCC(CCOc3ccccc3F)C2)c1 (centres undefined) | 828
COc1ccc(-c2cc3n(n2)CCCN(C(=O)C2CCCO2)C3)cc1 (centres undefined) | 700
CCCn1c(C)cnc1C1CN(S(=O)(=O)c2ccc(F)c(Cl)c2)C1 | 706

Structure (SMILES) | RP-LC retention time [s]
COc1ccc(N2CCN(c3nc(C(=O)NCC4CCCO4)cs3)CC2)cc1 (centres undefined) | 821
Cc1ccc(-c2nc(CN3CCCC3=O)no2)cc1 | 782
O=C(C1CCN(c2cnc3nccnc3c2)CC1)N1CCN(c2cccc(Cl)c2)CC1 | 833
CN(C)CCn1nnc2cc(-c3noc(-c4ccc(F)cc4)n3)ccc21 | 651
Cc1cccc(-n2c(=O)c3sccc3n(Cc3nc(-c4ccc(C(C)(C)C)cc4)no3)c2=O)c1 | 1260
O=C(NCc1csc(C2CCN(C(=O)Cc3ccc(Cl)cc3)CC2)n1)C1CCC1 | 784
Cc1ccc2nc(-c3cc(Br)ccc3F)c(Nc3ccccc3C)n2c1 | 793
Cc1ccc(NC(=O)Cn2nc(-n3cccc3)c3c(C)cc(C)nc32)c(C)c1 | 1080
Cc1cc(C(=O)NC2CC2)c2cc(Br)ccc2n1 | 664
O=C(NC1CCCC1)c1c2c(nc3ccc(F)cc13)CCC2 | 750
O=C(c1cnccn1)N1CCC(F)(F)C(COCC2CC2)C1 (centres undefined) | 786
Cc1cc(C)n(-c2ccnc(N3CCC(C(=O)N4CCc5ccccc5C4)CC3)n2)n1 | 935
Cc1ccc2[nH]cc(CCNC(=O)Nc3ccc(Cl)c(Cl)c3)c2c1 | 1050
COCCN1C(=O)CC[C@]2(C(=O)NCc3cc(F)ccc3F)CCCC[C@@H]12 | 724
O=C(COc1ccc(F)cc1)NC1(c2nc(-c3ccncc3)no2)CCCCC1 | 934
CCOc1ccc(-c2noc(Cn3c(=O)n(Cc4ccccc4)c(=O)c4sccc43)n2)cc1OC | 1110
CCn1c(SCC(=O)N2CCC(C(N)=O)CC2)nnc1-c1sc2ncccc2c1N | 603
COc1cccc(CNC(=O)c2c(C)sc3ccn(CC(C)C)c(=O)c23)c1 | 960
CCCCS(=O)(=O)N1CC=C(c2cn(C)c3ncccc23)CC1 | 879
CC(Oc1ccccc1)C(=O)N1CCN(C(=O)c2nnn3c2COC(c2ccc(Cl)cc2)C3)CC1 (centres undefined) | 972

The remaining lines, values ahead:

RP-LC retention time [s] | Structure (SMILES)
581 | CC1=C(c2ccc(C)cc2)S(=O)(=O)N=C1N1CCCN(C(=O)C2CC2)CC1
634 | Cc1ccc2c(CN3CCN(c4ccccn4)CC3)cc(=O)oc2c1
538 | COc1ncccc1CNC(=O)Cc1cccnc1
1010 | COc1cc(OC)c(NC(=O)N2CCOc3ccccc32)cc1Cl
739 | COc1ccc(C(=O)N2CCN(c3cc(-c4cccs4)[nH]n3)CC2)c(OC)c1
596 | CCOCCCNC(=O)Nc1ccc2nc(N3CCOCC3)cc(C)c2c1
939 | O=S(=O)(c1ccc2nc(N3CCN(c4ccccc4F)CC3)ccc2c1)N1CCOCC1
750 | COc1ccc(CC(C)(O)CNC(=O)Nc2ccccc2OC)cc1 (centres undefined)
1000 | O=c1n(Cc2ccc(Cl)cc2)nc2ccc(S(=O)(=O)N3CCCCC3)cn12
972 | O=C1C(O)=C(S(=O)(=O)c2ccc(Cl)cc2)C(c2ccc(F)cc2)N1Cc1ccco1 (centres undefined)
793 | Cc1nc(Cn2cccc2C(=O)Nc2ccc(F)cc2F)no1
602 | Cc1ccc(Cn2cc(-c3ccncc3)cc2C(=O)N2CCN(C3CCCCC3)CC2)cc1
637 | CCNC(=O)c1cn(-c2ccc(SCC(=O)Nc3ccc4c(c3)OCCO4)nn2)cn1
1100 | CCCN1C(=O)c2cc(S(=O)(=O)Nc3ccc(F)c(F)c3)ccc2Oc2cccnc21
807 | Cc1noc(N)c1-c1ccc(Cl)cc1
1240 | Cc1ccc(C)c(NC(=O)c2cc(C(C)C)n3nccc3n2)c1
580 | Cc1cc(NC(=O)C(=O)NCCN2CCN(c3ccccc3F)CC2)no1
670 | O=C(c1ccoc1)N1CCCC1c1nc(C2CCOCC2)no1 (centres undefined)
1050 | Cc1ccc(CNC(=O)CCCn2nc(-n3cccc3)c3c(C)cc(C)nc32)cc1
992 | COc1ccc(NC(=O)c2nnc(CCCC(=O)NCCc3c[nH]c4ccc(C)cc34)s2)cc1
700 | CCCC(NC(=O)Cc1cccc(OC)c1)C(=O)Nc1nc2ccccc2[nH]1 (centres undefined)
877 | Cc1ccc(N2N=C(C(=O)NCC3CCCO3)S(=O)(=O)c3cc(F)ccc32)cc1 (centres undefined)
683 | CC1CN(CC(=O)N2CCN(c3ccccn3)CC2)c2ccccc2S1 (centres undefined)
1120 | CN(Cc1ccccc1)C(=O)Cn1c(=O)c2cnc(-c3ccc(Cl)cc3)nc2n(C)c1=O
982 | Cc1cc(C)n(-c2c3c(nc4c(-c5ccccc5)c(C)nn24)CCC3)n1
865 | CC(C)n1cnc(S(=O)(=O)N2CCC(C(=O)N3CCN(c4ccc(Cl)cc4)CC3)CC2)c1
809 | CCOc1ccc2nc(Nc3ncc4c(n3)CC(c3ccc(OC)cc3)CC4=O)nc(C)c2c1 (centres undefined)
590 | CN(C)CCn1cc(C(=O)NCc2ccco2)ccc1=O
596 | O=C(NCc1ccco1)c1ccc2c(c1)nc1n2CCCCC1
